Laboratory results published in article PMC6348423, “Rapid Mapping of Protein Interactions Using Tag‐Transfer Photocrosslinkers” (Angewandte Chemie (International Ed. in English), 2018).
Ends that are not written are not given here. Peptide text beside a SMILES is read from it. * marks the point of attachment. MTS‑TFMD = trifluoromethyl phenyl diazirine photocrosslinker tag, disulfide-linked to Cys via MTS; X2 = CC1(CCS*)N=N1

Tests used:
MCL-1 = target: T1, MCL-1 (Homo sapiens, UniProt Q07820); assay: Photo-crosslinking of labelled BID80-102 peptides to MCL-1, SDS-PAGE band intensity; conditions: 20 μM labelled peptide + 20 μM MCL-1, TBS pH 7.6; 365 nm UV LED, 1 min; SDS-PAGE band intensity of crosslinked vs non-crosslinked MCL-1; value ± SD of three repeats; SD
T1 construct: made in house
Method: Cross-linking experiments
For all irradiation methods, samples were prepared in the following way. For crosslinking of MCL-1/BID80-102, 20 μL of a solution containing MTS-diazirine or MTS-TFMD labelled BID80-102 peptide (20 μM) and MCL-1 (20 μM) in buffer 50 mM Tris-HCl, 150 mM NaCl (TBS) pH 7.6 was prepared. […]
This was then placed under a covered LF-206.LS 6 W 365 nm lamp (Uvitec) at a distance of 12 mm from the source for different times up to 30 min. For UV LED chip experiments, acrylic chip chambers were washed with TBS pH 7.6 buffer and 33 µL of sample was added. These were then clamped into the chip holder and irradiated with the 365 nm LED for up to 30 s. A pipette was used to remove the sample from the chip via the lower filling hole. For UV LED tube experiments, 30-130 µL of sample was added to a thin-walled PCR tube and placed inside a 0.5 mL microfuge tube which itself was in a 1.5 mL microfuge tube that had been wrapped in aluminium foil (to reflect the UV irradiation within the containers). Samples were irradiated with the 365 nm LED for 30 s. To crosslink MCL-1 BID80-102, samples were irradiated using this apparatus for 1 min.
Separation and enrichment of cross-linked products
To separate and/or enrich crosslinked samples three methods were used as described in the main text.
Table S1: Affinity (EC50) of labelled BID80-102 peptides to MCL-1 as determined by competition fluorescence anisotropy assay. Crosslinking efficiency of labelled BID80-102 peptides to MCL-1 based on the SDS-PAGE band intensity of crosslinked and non-crosslinked […]
The values and standard deviations are results of three repeats. n.d = not determined as binding was too weak to enable an accurate fit to be obtained.
BID peptide EC50 for affinity to MCL-1 (nM) Crosslinked Mcl-1 (%)

Skp = conditions: read-out: KD of Skp/OmpA complex; cited from earlier work

T1 sequence (Q07820 whole entry): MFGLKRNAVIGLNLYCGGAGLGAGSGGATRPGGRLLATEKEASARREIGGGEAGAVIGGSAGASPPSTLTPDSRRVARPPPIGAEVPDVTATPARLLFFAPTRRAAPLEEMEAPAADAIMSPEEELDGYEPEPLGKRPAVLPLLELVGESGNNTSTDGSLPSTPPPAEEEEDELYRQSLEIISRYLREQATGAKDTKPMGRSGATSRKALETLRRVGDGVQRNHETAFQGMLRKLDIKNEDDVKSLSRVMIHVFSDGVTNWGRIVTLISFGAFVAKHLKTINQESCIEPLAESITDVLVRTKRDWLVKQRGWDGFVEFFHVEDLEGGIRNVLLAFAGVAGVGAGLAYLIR

| Molecule | Crosslinked Mcl-1 (crosslinking efficiency) (MCL-1) [%] | Kd (Skp) [nM] |
| --- | --- | --- |
| CC[C@H](C)[C@H](NC(=O)[C@H](CO)NC(=O)[C@H](CCCNC(=N)N)NC(=O)[C@H](CC(=O)O)NC(=O)[C@H](CCSC)NC(=O)[C@H](CO)NC(=O)[C@H](CC(=O)O)NC(=O)CNC(=O)[C@@H](NC(=O)[C@H](CCC(N)=O)NC(=O)[C@H](C)NC(=O)[C@H](CC(C)C)NC(=O)[C@H](Cc1c[nH]cn1)NC(=O)[C@H](CCCNC(=N)N)NC(=O)[C@H](C)NC(=O)[C@H](CSSCCC1(C)N=N1)NC(=O)[C@H](CC(N)=O)NC(=O)[C@H](CCCNC(=N)N)NC(=O)[C@@H](NC(=O)[C@@H](NC(=O)[C@H](CC(=O)O)NC(=O)[C@H](CCC(=O)O)NC(C)=O)[C@@H](C)CC)[C@@H](C)CC)C(C)C)C(=O)N[C@@H](Cc1c[nH]c2ccccc12)C(N)=O [MTS-diazirine labelled I86C] (Ac-EDIIRNC(X2)ARHLAQVGDSMDRSIW-NH2) | 16 ± 2 |  |
| CC[C@H](C)[C@H](NC(=O)[C@H](CC(N)=O)NC(=O)[C@H](CCCNC(=N)N)NC(=O)[C@@H](NC(=O)[C@@H](NC(=O)[C@H](CC(=O)O)NC(=O)[C@H](CCC(=O)O)NC(C)=O)[C@@H](C)CC)[C@@H](C)CC)C(=O)N[C@@H](C)C(=O)N[C@@H](CCCNC(=N)N)C(=O)N[C@@H](Cc1c[nH]cn1)C(=O)N[C@@H](CC(C)C)C(=O)N[C@@H](C)C(=O)N[C@@H](CCC(N)=O)C(=O)N[C@H](C(=O)NCC(=O)N[C@@H](CC(=O)O)C(=O)N[C@@H](CO)C(=O)N[C@@H](CSSCCC1(C)N=N1)C(=O)N[C@@H](CC(=O)O)C(=O)N[C@@H](CCCNC(=N)N)C(=O)N[C@@H](CO)C(=O)N[C@H](C(=O)N[C@@H](Cc1c[nH]c2ccccc12)C(N)=O)[C@@H](C)CC)C(C)C [MTS-diazirine labelled M97C] (Ac-EDIIRNIARHLAQVGDSC(X2)DRSIW-NH2) | 41 ± 6 |  |
| CC[C@H](C)[C@H](NC(=O)[C@H](CC(N)=O)NC(=O)[C@H](CCCNC(=N)N)NC(=O)[C@@H](NC(=O)[C@@H](NC(=O)[C@H](CC(=O)O)NC(=O)[C@H](CCC(=O)O)NC(C)=O)[C@@H](C)CC)[C@@H](C)CC)C(=O)N[C@@H](C)C(=O)N[C@@H](CCCNC(=N)N)C(=O)N[C@@H](Cc1c[nH]cn1)C(=O)N[C@@H](CC(C)C)C(=O)N[C@@H](C)C(=O)N[C@@H](CCC(N)=O)C(=O)N[C@H](C(=O)NCC(=O)N[C@@H](CC(=O)O)C(=O)N[C@@H](CO)C(=O)N[C@@H](CCSC)C(=O)N[C@@H](CC(=O)O)C(=O)N[C@@H](CCCNC(=N)N)C(=O)N[C@@H](CSSCc1ccc(C2(C(F)(F)F)N=N2)cc1)C(=O)N[C@H](C(=O)N[C@@H](Cc1c[nH]c2ccccc12)C(N)=O)[C@@H](C)CC)C(C)C [MTS-TMFD labelled S100C] | 31 ± 3 |  |
| MTS-TMFD labelled V93C: single Cys variant V93C of BID80–102 tagged with MTS-TFMD (EDIIRNIARHLAQC(MTS‑TFMD)GDSMDRSIP; UniProt P55957 80-102, looked up, fragment V93C) | 40 ± 8 |  |
| OmpA: E. coli β-barrel outer membrane protein, substrate of the periplasmic chaperone Skp (protein, UniProt P0A910 22-346, looked up) Outer membrane protein A: APKDNTWYTGAKLGWSQYHDTGFINNNGPTHENQLGAGAFGGYQVNPYVGFEMGYDWLGRMPYKGSVENGAYKAQGVQLTAKLGYPITDDLDIYTRLGGMVWRADTKSNVYGKNHDTGVSPVFAGGVEYAITPEIATRLEYQWTNNIGDAHTIGTRPDNGMLSLGVSYRFGQGEAAPVVAPAPAPAPEVQTKHFTLKSDVLFNFNKATLKPEGQAALDQLYSQLSNLDPKDGSVVVLGYTDRIGSDAYNQGLSERRAQSVVDYLISKGIPADKISARGMGESNPVTGNTCDNVKQRAALIDCLAPDRRVEIEVKGIKDVVTQPQA |  | 22 ± 16 |
